Results as given in patent US8975275B2, “Use of chemotherapeutic agents” (priority 1999, dated 2015).
Counter-ions that a name gives are not always drawn.

Key:
Format in all cases: in vivo, human
[1] = tested on: wounds, bacterial skin infections, diabetic foot syndrome; experiment: Wound care: topical/local application (patient cases); settings: for wound check-up, ulcer c) / wound check-up, ulcer a) / wound check-up, ulcer b): Patient D 3; for wound check-up: Patient D 4
Source text: Postoperative wound infections can generally occur in cases of inadequate infection prophylaxis following surgical interventions. Posttraumatic wound infections can arise due to cuts, stings, bruises, bites or gunshot wounds. Local perioperative prophylaxis can be carried out in the case of aseptic operations with a slight risk of infection. It is also possible to use local perioperative prophylaxis in addition to systemic perioperative prophylaxis, for example in the case of infections with an increased risk of infection, such as implantations, heart operations, transplantations, neurosurgical operations, operations in a highly contaminated area such as the oral cavity, oesophagus, rectum or colon, hysterectomy, bile duct operations, operations on patients with lowered resistance, or amputations. The local treatment of first, second or third degree burns can be administered prophylactically or after infection. […] Examples of hand infections are panaritium cutaueum, panaritium subcutaneum, panaritium ossale, panaritium articulate or tendovaginitis purulenta. In postoperative sepsis the infected wounds can be rendered substantially or completely free of microbes by the topical application of antibacterial agents. Gangrenes can be handled by local treatment with antibiotics in addition to therapy with parenteral antibiotics. Examples of acute bacterial skin infections are pyoderma, erysipelas, furuncles, carbuncles, phlegmons, abscesses, ulcus cruris, diabetic foot, infected decubital ulcers, blood blisters, erysipeloids or erytlrasma. Examples of chronic bacterial skin infections are lupus vulgaris, swimming-pool granuloma, Buruli ulcers or actinomycosis. Secondary bacterial infections occur for example in virus infections such as herpes simplex, herpes zoster or chicken-pox. Secondary bacterial infections of dermatoses occur for example in eczema, the exudation stage of neurodermatitis, vesicular dermatoses or contact dermatitis. Milder and moderate forms of acne and rosacea can also be treated locally.

[2] = tested on: infected root canal and periapical region; experiment: Topical treatment of the infected root canal and the periapical region (patient cases)
Description: In the clinical use of the compounds of formula (I) or formula (II), the pulp residues are removed first. The preparation of the canals is carried out with minimum discomfort for the patient. The canals are then flushed with hydrogen peroxide, Other methods of disinfection can be omitted. The compounds of formula (I) or formula (II), in a liquid form of administration, are then introduced into the toot canal under pressure using a cannula. The compounds of formula (I) or (II) are then injected in dissolved form or in a gelatinous form of administration. The root canal is subsequently occluded in the crown region, first with a cotton wool plug and then with zinc phosphate cement to seal the margins. If the canals are not gangrenous, the antibiotics remain in the canals for 3 days. […] The compounds of formula (I) or formula (II) can be used in concentrations of 0.005 mg/ml to 200 mg/ml.
In this application technique, which is known from intraligamental anaesthesia, the tooth is completely flooded with the antibacterial solution of the compounds of formula (I) or formula (II) in the entire root region.

periodontal diseases = experiment: Topical treatment of periodontal diseases (patient cases)
Source text: To do this, threads or so-called chips impregnated with solutions or gelatinous preparations of the compounds of formula (I) or formula (II) are inserted in the gingival pocket. A possible alternative is to use medicament carriers in the form of trays covering the teeth and gingiva. Before they are applied, the gelatinous applications of the compounds of formula (I) or formula (II) are instilled into the gingival pockets. In addition, the gel containing the compounds of formula (I) or formula (II) can also be placed in the medicament carrier. This use of medicament carriers is advantageous because the treatment time can be reduced by the rapid onset of action to about 15 to 30 minutes, so the treatment can be carried out directly in the surgery. The compounds of formula (I) or formula (II) can be used in concentrations of 0.005 mg/ml to 200 mg/ml. Preferred concentrations are those ranging from 0.5 mg/ml to 200 mg/ml and particularly preferred concentrations are those ranging from 10 to 150 mg/ml. Periodontal diseases can also be treated by administering the compounds of formula (I) or formula (II) by intraligamental injection, it being possible to use concentrations ranging from 0.005 mg/ml to 200 mg/ml, preferably from 0.5 mg/ml to 200 mg/ml. For the antibiotics commonly used nowadays, such as tetracyclines, an intraligamental injection is not reasonable since these compounds with a predominantly bacteriostatic action are quickly washed out due to the rapid fluid exchange in the periodontal interstice, and cannot develop their action. Tetra-cyclines can therefore only develop their effects via depot formulations. By contrast, the compounds of formula (I) or formula (II) have a very rapid and also bactericidal action, so their residence time in the periodontal interstice is sufficient to destroy the microbes.

[3] = gel (1%) weekly, after 2nd week

Compound: COc1c(N2C[C@@H]3CCCN[C@@H]3C2)c(F)cc2c(=O)c(C(=O)O)cn(C3CC3)c12 [moxifloxacin hydrochloride, 1-cyclopropyl-6-fluoro-1,4-dihydro-8-methoxy-7-[(4aS,7aS)-octahydro-6H-pyrrolo[3,4-b]pyridin-6-yl]-4-oxo-3-quinolinecarboxylic acid]
- wound outcome ([1]; Patient D 1, combustio escharotica on left forearm, gel (1%), after one week): Regeneration of skin epithelium with complete wound closure
- wound check-up, ulcer c) ([1]; D IV/D V, gel (1%) weekly, after 2nd week): ulcer C IV/D V healed
- wound check-up, ulcer a) ([1]; deep 2×1.5 cm greasy ulcer under right big toe, dressings with gel (1%) at weekly intervals, after 1st week): ulcer D I, 1×0.5 cm, clean
- wound check-up, ulcer a) [1, 3]: ulcer D I pinhead-size, clean
- wound check-up, ulcer a) ([1]; gel (1%) weekly, after 3rd week): ulcer D I unchanged
- wound check-up, ulcer a) ([1]; gel (1%) weekly, after 4th week): ulcer D I healed
- wound check-up, ulcer c) ([1]; large fissure D IV/D V, dressings with gel (1%) at weekly intervals, after 1st week): ulcer D IV/D V encrusted
- wound check-up, ulcer b) ([1]; large ulcer D III, dressings with gel (1%) at weekly intervals, after 1st week): ulcer D III clean
- wound check-up, ulcer b) ([1]; ulcer D III, gel (1%) weekly, after 2nd week): ulcer D III, clean granular tissue
- wound check-up, ulcer b) ([1]; ulcer D III, gel (1%) weekly, after 3rd week): ulcer D III pinhead-size
- wound check-up, ulcer b) ([1]; ulcer D III, gel (1%) weekly, after 4th week): ulcer D III healed
- wound check-up ([1]; diabetic foot syndrome, 1×1 cm greasy ulcer, dressings with gel (1%) at weekly intervals, after 1st week): ulcer 0.2×0.4 cm, clean
- wound check-up [1, 3]: ulcer healed
- wound outcome ([1]; Patient D 5, diabetic gangrene on left big toe, four applications of gel (1%) at weekly intervals): Regeneration of skin epithelium with complete wound closure, revascularization
- clinical outcome ([1]; Patient D 7, phlegmons on palm of left hand, incision, local antibiosis with gel (1%), repeated after 2 days): Patient symptom-free
- clinical outcome ([1]; Patient D 9, carbuncle on back of neck, excision, open wound treatment with impregnated compress): Patient symptom-free
- clinical finding at check-up ([2]; Patient A 3.11, tooth 34 apical periodontitis, fistula, root canal insert gel 100 mg/ml, check-up after 10 days): patient symptom-free
- clinical finding at check-up ([2]; Patient A 3.12, tooth 44 fistulation, gangrenous, solution 50 mg/ml by paper point + intraligamental injection 50 mg/ml, check-up after 8 days): patient symptom-free
- clinical finding at check-up ([2]; Patient A 3.15, tooth 31 apical periodontitis due to gangrene, solution 50 mg/ml + gel 50 mg/ml + intraligamental injection 50 mg/ml, check-up after 9 days): patient symptom-free, canal odourless
- clinical finding at check-up ([2]; Patient A 3.21, repetition of flushing and insert, check-up after 10 days): patient symptom-free
- clinical finding at check-up ([2]; Patient A 3.21, tooth 22 fistula, gangrenous, flushing solution 50 mg/ml + gel 50 mg/ml + intraligamental injection 50 mg/ml, check-up after 8 days): patient still not fully symptom-free, canal still had very slight odor
- clinical finding at check-up ([2]; Patient A 3.3, tooth 11 apical periodontitis due to gangrene, solution 50 mg/ml + gel 50 mg/ml + intraligamental injection 50 mg/ml, check-up after 3 days): patient symptom-free, canal odourless
- clinical finding at check-up ([2]; Patient A 3.4, tooth 11 apical periodontitis, not gangrenous, root canal insert gel 50 mg/ml, check-up after 3 days): patient symptom-free
- clinical finding at check-up ([2]; Patient A 3.5, tooth 35 apical periodontitis due to gangrene, solution 50 mg/ml + gel 50 mg/ml + intraligamental injection 50 mg/ml, check-up after 7 days): no gangrenous odour, no bite discomfort
- clinical finding at check-up ([2]; Patient A 3.6, tooth 36 apical periodontitis due to gangrene, gel 50 mg/ml + intraligamental injection 50 mg/ml, check-up after 8 days): no gangrenous odour, patient symptom-free
- clinical finding at check-up ([2]; Patient A 3.7, tooth 14 apical periodontitis due to gangrene, gel 100 mg/ml + intraligamental injection 50 mg/ml, check-up after 7 days): patient symptom-free
- clinical finding at check-up ([2]; Patient A 3.8, tooth 34 apical periodontitis due to gangrene, gel 50 mg/ml + intraligamental injection 50 mg/ml, check-up after 13 weeks): patient symptom-free, canal odour-free
- clinical finding at check-up ([2]; Patient A 3.9, tooth 46 apical periodontitis, not gangrenous, gel 100 mg/ml + intraligamental injection 50 mg/ml, check-up after 7 days): patient symptom-free
- clinical finding at check-up (periodontal diseases; Patient B 1, teeth 26 and 27 marginal periodontitis, thread insert gel 50 mgn/ml, check-up after 3 days): patient symptom-free, gingival regions and pockets inflammation-free
- clinical finding at check-up (periodontal diseases; Patient B 2, teeth 14 to 18 severe marginal periodontitis, thread insert gel 50 mg/ml, check-up after 4 days): patient symptom-free, gingival regions and pockets inflammation-free
- clinical finding at check-up (periodontal diseases; Patient B 3, teeth 24 to 28 marginal periodontitis, thread insert 50 mg/ml, check-up after 5 days): patient symptom-free, gingival regions and pockets inflammation-free
- clinical finding at check-up (periodontal diseases; Patient B 4, marginal periodontitis entire upper and lower jaw, medicinal splint gel 0.25 mg/ml 10 minutes/day for 4 days, check-up after 3 days): patient symptom-free, no more inflammatory phenomena present
- clinical finding at check-up (periodontal diseases; Patient B 5, tooth 37 marginal periodontitis, thread insert gel 50 mg/ml, check-up after 8 days): patient symptom-free, gingival regions and pockets inflammation-free
- clinical finding at check-up (periodontal diseases; Patient B 6, teeth 25-28 severe marginal periodontitis, thread insert gel 50 mg/ml + intraligamental injection 50 mg/ml, check-up after 10 days): patient symptom-free, gingival regions and pockets inflammation-free
